Laboratory results taken from US20060233887A1, “Bioactive material for use in stimulating vascularization” (The North West London Hospitals N H S Trust, priority 2003, published 2006).

Tested on: human endothelial cells
Test: In vitro angiogenesis assay (Angiogenesis Assay Kit, CD31 staining, AngioSys image analysis)
Type: cell-based
Details: 11 days
Source text: To evaluate the angiogenic growth factors secreted from fibroblasts in response to 45S5 Bioglass®, a commercial angiogenesis assay (Angiogenesis Assay Kit; TCS CellWorks Ltd) was used (Donovan D et al. Comparison of three in vitro human ‘angiogenesis’ assays with capillaries formed in vivo. Angiogenesis. 2001;4:113-121; Drinkwater S L et al Effect of venous ulcer exudates on angiogenesis in vitro. Br J Surg. 2002;89:709-713; Sengupta S et al. Thymidine phosphorylase induces angiogenesis in vivo and in vitro: an evaluation of possible mechanisms. Br J Pharmacol. 2003;139:219-231). The assay was performed according to the manufacturer's instructions.
In brief, on the day of delivery from the supplier, the medium in the culture plate was replaced with optimised medium (TCS CellWorks Ltd; supplied with the kit) alone (OM); OM:conditioned medium (medium collected from human colonic fibroblasts (CCD-18co) cultured on 0 g/cm^2 or 0.3125 mg/cm^2 45S5 Bioglass® for 72 hours) at 1:1 v/v; OM containing 2 ng/ml VEGF (positive control); or OM containing 20 μM suramin (negative control). Each treatment condition was repeated in quadruplicate. The culture medium was removed on days 4, 7 and 9 of the experiment and replaced with fresh pre-equilibrated (37° C. and 5% CO2) optimised medium plus each treatment. After 11 days, the endothelial cells were stained for CD31 (TCS CellWorks Ltd) using indirect immunocytochemistry as described in the manufacturer's instructions and allowed to air-dry. Each well was divided into quadrants on the underside of the plate. Photomicrographs of each quadrant were recorded with a Nikon Eclipse TE2000-S inverted photomicroscope fitted with a digital camera using a 4× objective lens. Image analysis software (AngioSys, Foster Findlay Associates, Newcastle Upon Tyne, UK) was used for automated scoring of the assay, providing quantitative measurements of endothelial tubule development (total vessel number, total tubule length and number of junctions), as previously described (Drinkwater S L et al Effect of venous ulcer exudates on angiogenesis in vitro. Br J Surg. 2002;89:709-713; Sengupta S et al. Thymidine phosphorylase induces angiogenesis in vivo and in vitro: an evaluation of possible mechanisms. Br J Pharmacol. 2003; 139:219-231).

[1] = 20 μM suramin, vs control endothelial cells

For VEGF, the “number of anastomosed endothelial tubules (micrographs)” value (2 ng/ml VEGF, vs optimised medium alone) was “visible increase” and the “endothelial tubule development (tubules, tubule length, junctions)” value (2 ng/ml VEGF, positive control) was “Significant increases”.
In the case of `Cc1ccc(C(=O)Nc2ccc(S(=O)(=O)O)c3cc(S(=O)(=O)O)cc(S(=O)(=O)O)c23)cc1NC(=O)c1cccc(NC(=O)Nc2cccc(C(=O)Nc3cc(C(=O)Nc4ccc(S(=O)(=O)O)c5cc(S(=O)(=O)O)cc(S(=O)(=O)O)c45)ccc3C)c2)c1` [suramin], the “number of endothelial tubules” value [1] is reported as “reduced”, the “number of tubule junctions” value [1] is reported as “reduced” and the total tubule length [1] is reported as “reduced”.
